According to patent publication US9376442B2, “Methylpyrrolopyrimidinecarboxamides” (Takeda GmbH, priority 2009, dated 2016):

Molecular target: T1, PDE5A1 (Homo sapiens, UniProt O76074)
T1 construct: from tissue; host or cells: human platelets from fresh donor blood (10,000 x g supernatant of sonicated lysate)
Test: Inhibition of type 5 phosphodiesterase (PDE5) activity, modified SPA test with human platelet lysate
Type: biochemical
Settings: 0.5 μM cGMP, read-out: PDE5A1 inhibitory values [measured as −log IC50 (mol/l)] (converted)
Procedure: Method for Measuring Inhibition of the Type 5 Phosphodiesterase (PDE5) Activity:
As a source for human PDE5, platelets are used. For that purpose, 150 ml fresh blood from human donors anticoagulated with citrate [final concentration 0.3% (w/v)] is centrifuged at 200 g for 10 min to obtain the so-called platelet-rich-plasma (PRP) as a supernatant. 1/10 volume of ACD solution (85 mM Na3-citrate, 111 mM D-glucose, 71 mM citric acid, pH 4.4) is added to 9/10 volume of PRP. After centrifugation (1,400 g, 10 min) the cell pellet is resuspended in 3 ml homogenization buffer (NaCl 140 mM, KCl 3.8 mM, EGTA (ethylene glycol tetraacetic acid) 1 mM, MgCl2 1 mM, Tris-HCl 20 mM, beta-mercaptoethanol 1 mM, pH 8.2) plus protease-inhibitor mix giving rise to the final concentrations of 0.5 mM Pefablock (Roche), 10 μM Leupeptin, 5 μM Trypsininhibitor, 2 mM Benzamidin and 10 μM Pepstatin A. The suspension is sonified and thereafter centrifuged for 15 min at 10,000 g. The resulting supernatant (platelet lysate) is used for enzymatic testings.
PDE5A1 activity is inhibited by the compounds of the present subject matter in a modified SPA (scintillation proximity assay) test, supplied by Amersham Biosciences (see procedural instructions “phosphodiesterase [3H]cAMP SPA enzyme assay, code TRKQ 7090”), carried out in 96-well microtitre plates (MTP's). The test volume is 100 μl and contains 20 mM Tris buffer (pH 7.4), 0.1 mg of BSA (bovine serum albumin)/ml, 5 mM Mg^2+, 1 μM motapizone, 10 nM PDE2 inhibitor 2-(3,4-dimethoxybenzyl)-7-[(1R,2R)-2-hydroxy-1-(2-phenylethyl)propyl]-5-methylimidazo[5,1-f][1,2,4]triazin-4(3H)-one, 0.5 μM cGMP (cyclic guanosine monophosphate) (including about 50,000 cpm of [3H]cGMP as a tracer), 1 μl of the respective compound dilution in dimethylsulfoxide (DMSO) and sufficient PDE5-containing platelet lysat (10,000×g supernatant, see above) to ensure that 10-20 wt % of the cGMP is converted under the said experimental conditions. […] After a preincubation of 5 min at 37° C., the reaction is started by adding the substrate (cGMP) and the assay is incubated for a further 15 min; after that, it is stopped by adding SPA beads (50 μl). In accordance with the manufacturer's instructions, the SPA beads had previously been resuspended in water, but are then diluted 1:3 (v/v) in water; the diluted solution also contains 3 mM […] (IBMX) to ensure a complete PDE activity stop. After the beads have been sedimented (>30 min), the MTP's are analyzed in commercially available luminescence detection devices. The corresponding IC50 values of the compounds for the inhibition of PDE activity are determined from the concentration-effect curves by means of non-linear regression.

| SMILES | IC50 [nM] |
| --- | --- |
| COCC(=O)N1CC[C@@H](NC(=O)c2c(C)[nH]c3c(-c4cc(OC)c(F)cc4OCC4CC4)ncnc23)[C@H](O)C1 (relative stereo) [Example E115, 4-[2-(cyclopropylmethoxy)-4-fluoro-5-methoxyphenyl]-N-[(3R*,4R*)-3-hydroxy-1-(methoxyacetyl)piperidin-4-yl]-6-methyl-5H-pyrrolo[3,2-d]pyrimidine-7-carboxamide] | < 1 |
| COc1cc(-c2ncnc3c(C(=O)N[C@H]4CN(C(C)=O)CC[C@@H]4O)c(C)[nH]c23)c(OCC2CC2)cc1F (relative stereo) [Example E116, N-[(3S*,4S*)-1-Acetyl-4-hydroxypiperidin-3-yl]-4-[2-(cyclopropylmethoxy)-4-fluoro-5-methoxyphenyl]-6-methyl-5H-pyrrolo[3,2-d]pyrimidine-7-carboxamide] | < 1 |
| CCC(=O)N1CC[C@H](O)[C@@H](NC(=O)c2c(C)[nH]c3c(-c4cc(OC)c(F)cc4OCC4CC4)ncnc23)C1 (relative stereo) [Example E117, 4-[2-(Cyclopropylmethoxy)-4-fluoro-5-methoxyphenyl]-N-[(3S*,4S*)-4-hydroxy-1-propionylpiperidin-3-yl]-6-methyl-5H-pyrrolo[3,2-d]pyrimidine-7-carboxamide] | < 1 |
| COCC(=O)N1CC[C@H](O)[C@@H](NC(=O)c2c(C)[nH]c3c(-c4cc(OC)c(F)cc4OCC4CC4)ncnc23)C1 (relative stereo) [Example E118, 4-[2-(cyclopropylmethoxy)-4-fluoro-5-methoxyphenyl]-N-[(3S*,4S*)-4-hydroxy-1-(methoxyacetyl)piperidin-3-yl]-6-methyl-5H-pyrrolo[3,2-d]pyrimidine-7-carboxamide] | < 1 |
| CC(=O)N1CC[C@@H](NC(=O)c2c(C)[nH]c3c(-c4cc(C)c(F)cc4OCC4CC4)ncnc23)[C@H](O)C1 (relative stereo) [Example E128, N-[(3R*,4R*)-1-Acetyl-3-hydroxypiperidin-4-yl]-4-[2-(cyclopropylmethoxy)-4-fluoro-5-methylphenyl]-6-methyl-5H-pyrrolo[3,2-d]pyrimidine-7-carboxamide] | < 1 |
| CCC(=O)N1CC[C@@H](NC(=O)c2c(C)[nH]c3c(-c4cc(C)c(F)cc4OCC4CC4)ncnc23)[C@H](O)C1 (relative stereo) [Example E129, 4-[2-(cyclopropylmethoxy)-4-fluoro-5-methylphenyl]-N-[(3R*,4R*)-3-hydroxy-1-propanoylpiperidin-4-yl]-6-methyl-5H-pyrrolo[3,2-d]pyrimidine-7-carboxamide] | < 1 |
| COCC(=O)N1CC[C@@H](NC(=O)c2c(C)[nH]c3c(-c4cc(C)c(F)cc4OCC4CC4)ncnc23)[C@H](O)C1 (relative stereo) [Example E130, 4-[2-(Cyclopropylmethoxy)-4-fluoro-5-methylphenyl]-N-[(3R*,4R*)-3-hydroxy-1-(methoxyacetyl)piperidin-4-yl]-6-methyl-5H-pyrrolo[3,2-d]pyrimidine-7-carboxamide] | < 1 |
| COc1cc(OCC2CC2)c(-c2ncnc3c(C(=O)N[C@@H]4CCN(C(C)=O)C[C@H]4O)c(C)[nH]c23)cc1F (relative stereo) [Example E142, N-[(3R*,4R*)-1-Acetyl-3-hydroxypiperidin-4-yl]-4-[2-(cyclopropylmethoxy)-5-fluoro-4-methoxyphenyl]-6-methyl-5H-pyrrolo[3,2-d]pyrimidine-7-carboxamide] | < 1 |
| CCC(=O)N1CC[C@@H](NC(=O)c2c(C)[nH]c3c(-c4cc(F)c(OC)cc4OCC4CC4)ncnc23)[C@H](O)C1 (relative stereo) [Example E143, 4-[2-(Cyclopropylmethoxy)-5-fluoro-4-methoxyphenyl]-N-[(3R*,4R*)-3-hydroxy-1-propanoylpiperidin-4-yl]-6-methyl-5H-pyrrolo[3,2-d]pyrimidine-7-carboxamide] | < 1 |
| COCC(=O)N1CC[C@@H](NC(=O)c2c(C)[nH]c3c(-c4cc(F)c(OC)cc4OCC4CC4)ncnc23)[C@H](O)C1 (relative stereo) [Example E144, 4-[2-(Cyclopropylmethoxy)-5-fluoro-4-methoxyphenyl]-N-[(3R*,4R*)-3-hydroxy-1-(methoxyacetyl)piperidin-4-yl]-6-methyl-5H-pyrrolo[3,2-d]pyrimidine-7-carboxamide] | < 1 |
| COc1cc(-c2ncnc3c(C(=O)N[C@@H]4CN(C(C)=O)C[C@H]4O)c(C)[nH]c23)c(OCC2CC2)cc1F (relative stereo) [Example E183, N-[(3R*,4R*)-1-Acetyl-4-hydroxypyrrolidin-3-yl]-4-[2-(cyclopropylmethoxy)-4-fluoro-5-methoxyphenyl]-6-methyl-5H-pyrrolo[3,2-d]pyrimidine-7-carboxamide] | < 1 |
| CCC(=O)N1C[C@@H](O)[C@H](NC(=O)c2c(C)[nH]c3c(-c4cc(OC)c(F)cc4OCC4CC4)ncnc23)C1 (relative stereo) [Example E184, 4-[2-(Cyclopropylmethoxy)-4-fluoro-5-methoxyphenyl]-N-[(3R*,4R*)-4-hydroxy-1-propionylpyrrolidin-3-yl]-6-methyl-5H-pyrrolo[3,2-d]pyrimidine-7-carboxamide] | < 1 |
| COCC(=O)N1C[C@@H](O)[C@H](NC(=O)c2c(C)[nH]c3c(-c4cc(OC)c(F)cc4OCC4CC4)ncnc23)C1 (relative stereo) [Example E185, 4-[2-(Cyclopropylmethoxy)-4-fluoro-5-methoxyphenyl]-N-[(3R*,4R*)-4-hydroxy-1-(methoxyacetyl)pyrrolidin-3-yl]-6-methyl-5H-pyrrolo[3,2-d]pyrimidine-7-carboxamide] | < 1 |
| COc1cc(OCC2CC2)c(-c2ncnc3c(C(=O)N[C@@H]4CN(C(C)=O)C[C@H]4O)c(C)[nH]c23)cc1F (relative stereo) [Example E189, N-[(3R*,4R*)-1-Acetyl-4-hydroxypyrrolidin-3-yl]-4-[2-(cyclopropylmethoxy)-5-fluoro-4-methoxyphenyl]-6-methyl-5H-pyrrolo[3,2-d]pyrimidine-7-carboxamide] | < 1 |
| CCC(=O)N1C[C@@H](O)[C@H](NC(=O)c2c(C)[nH]c3c(-c4cc(F)c(OC)cc4OCC4CC4)ncnc23)C1 (relative stereo) [Example E190, 4-[2-(Cyclopropylmethoxy)-5-fluoro-4-methoxyphenyl]-N-[(3R*,4R*)-4-hydroxy-1-propionylpyrrolidin-3-yl]-6-methyl-5H-pyrrolo[3,2-d]pyrimidine-7-carboxamide] | < 1 |
| COCC(=O)N1C[C@@H](O)[C@H](NC(=O)c2c(C)[nH]c3c(-c4cc(F)c(OC)cc4OCC4CC4)ncnc23)C1 (relative stereo) [Example E191, 4-[2-(Cyclopropylmethoxy)-5-fluoro-4-methoxyphenyl]-N-[(3R*,4R*)-4-hydroxy-1-(methoxyacetyl)pyrrolidin-3-yl]-6-methyl-5H-pyrrolo[3,2-d]pyrimidine-7-carboxamide] | < 1 |
| COc1ccc(OCC2CC2)c(-c2ncnc3c(C(=O)N[C@@H]4CN(C(C)=O)C[C@H]4O)c(C)[nH]c23)c1 (relative stereo) [Example E192, N-[(3R*,4R*)-1-Acetyl-4-hydroxypyrrolidin-3-yl]-4-[2-(cyclopropylmethoxy)-5-methoxyphenyl]-6-methyl-5H-pyrrolo[3,2-d]pyrimidine-7-carboxamide] | 1 to 10 |
